Where a SMILES comes first, the peptide text is derived from it. [ ]: non-standard residue; d: D form.
How the values were obtained:
[1] = tested on: clinical strains of Escherichia coli; assay: MIC, clinical strains of E. coli; assay type: cell-based; parameters: unit: μg/ml; conditions: microdilution, Muller Hinton broth-cation adjusted, 0.02% BSA, 0.2% acetic acid
Summary of the method: (§1)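 Broth microdilution in Mueller Hinton broth, inoculum adjusted to 5.0×10^5 cfu/ml, peptide tested at 0.125 to 128 μg/ml and incubated at 37° C. for 20 to 24 hours. MIC was the lowest concentration with no visible growth. Yeasts were tested in potato dextrose broth.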

[2] = tested on: clinical strains of Klebsiella pneumoniae; assay: MIC, clinical strains of K. pneumoniae; assay type: cell-based; parameters: unit: μg/ml; conditions: microdilution, Muller Hinton broth-cation adjusted, 0.02% BSA, 0.2% acetic acid
Summary of the method: as §1

[3] = tested on: clinical strains of Pseudomonas aeruginosa; assay: MIC, clinical strains of P. aeruginosa; assay type: cell-based; parameters: unit: μg/ml; conditions: microdilution, Muller Hinton broth-cation adjusted, 0.02% BSA, 0.2% acetic acid
Summary of the method: as §1

[4] = tested on: clinical strains of Serratia marcescens; assay: MIC, clinical strains of Serratia marcescens; assay type: cell-based; parameters: unit: µg/mL; conditions: microdilution, Muller Hinton broth-cation adjusted, 0.02% BSA, 0.2% acetic acid
Summary of the method: as §1

[5] = tested on: clinical strains of Proteus mirabilis; assay: MIC, clinical strains of Proteus mirabilis; assay type: cell-based; parameters: unit: µg/mL; conditions: microdilution, Muller Hinton broth-cation adjusted, 0.02% BSA, 0.2% acetic acid
Summary of the method: as §1

[6] = tested on: clinical strains of Enterobacter cloacae; assay: MIC, clinical strains of Enterobacter cloacae; assay type: cell-based; parameters: unit: μg/ml; conditions: microdilution, Muller Hinton broth-cation adjusted, 0.02% BSA, 0.2% acetic acid
Summary of the method: as §1

[7] = tested on: clinical strains of Staphylococcus aureus; assay: MIC, clinical strains of S. aureus; assay type: cell-based; parameters: unit: μg/ml; conditions: microdilution, Muller Hinton broth-cation adjusted, 0.02% BSA, 0.2% acetic acid
Summary of the method: as §1

[8] = tested on: clinical strains of Streptococcus pneumoniae; assay: MIC, clinical strains of Streptococcus pneumoniae; assay type: cell-based; parameters: unit: µg/mL; conditions: microdilution, Muller Hinton broth-cation adjusted, 0.02% BSA, 0.2% acetic acid
Summary of the method: as §1

[9] = tested on: clinical strains of Acinetobacter baumannii; assay: MIC, clinical strains of Acinetobacter baumannii; assay type: cell-based; conditions: microdilution, Muller Hinton broth-cation adjusted, 0.02% BSA, 0.2% acetic acid
Method: Minimum inhibition concentrations (MICs) were determined against Escherichia coli (ATCC 25922), Staphylococcus aureus (ATCC 25923), Klebsiella pneumoniae (ATCC 10031) and Pseudomonas aeruginosa (ATCC 27853). Also clinical strains of E. coli, K. pneumoniae, E. cloacae, P. aeruginosa, Serratia marcescens, Proteus mirabilis, S. pneumoniae, Acinetobacter baumannii, A. johnsonii and S. aureus were used for MICs assays. Additionally, clinical strains of yeast including Candida albicans, C. glabrata, C. parapsilosis and C. quillermondiae were used. The susceptibility of these microorganisms to Chain peptides were determined using micro broth dilution assay. Colonies of the respective microorganism from Muller Hinton (MH) agar plates incubated overnight were suspended in MH broth media and final concentration of microorganism was adjusted to 5.0×10^5 cfu/ml. An aliquot of 10 μl of each Chain peptide, or gentamicin, tetracycline as reference antibiotics were added in differing concentrations along with 90 μl of bacterial suspension to 96 well polypropylene plates and incubated at 37° C. for 20 to 24 hours. Concentrations of Chain peptides and reference antibiotics ranged from 0.125 to 128 μg/ml and the MICs were recorded as the lowest concentration with no visual growth of bacteria. Similarly, antifungal MICs were tested in Potato dextrose broth.
Clinical strains of yeasts including Candida albicans, C. glabrata, C. parapsilosis and C. quillermondiae were also tested with the 12 Chain peptides. The minimum inhibitory concentration (MICs) varied between these peptides and are presented in Tables 4a, 4b, 4c and 5a, 5b, 5c. Peptides Chain 105, 201 and 308 are broad spectrum antimicrobials with MICs between 0.5-32 μg/ml against all the bacteria and yeasts tested, except Serratia marcescens and Proteus mirabilis, against which the MICs were between 64-128 μg/ml. Peptide Chain 306 has narrow spectrum activity against E.coli at 1 μg/ml and for the rest of the bacterial strains at >32 μg/ml (FIG. 10).

[10] = tested on: clinical strains of Candida albicans; assay: MIC, clinical yeast strains, Candida albicans; assay type: cell-based; parameters: unit: μg/ml
Summary of the method: as §1

[11] = tested on: clinical strains of C. glabrata; assay: MIC, clinical yeast strains, C. glabrata; assay type: cell-based, Candida glabrata; parameters: unit: μg/ml
Summary of the method: as §1

[12] = tested on: clinical strains of C. parapsilosis; assay: MIC, clinical yeast strains, C. parapsilosis; assay type: cell-based, Candida parapsilosis; parameters: unit: μg/ml
Summary of the method: as §1

[13] = tested on: clinical strains of C. quillermondiae; assay: MIC, clinical yeast strains, C. quillermondiae; assay type: cell-based; conditions: C. quillermondiae clinical yeast strain 1
Summary of the method: as §1

SMILES: CC[C@@H](C)[C@@H](NC(=O)[C@@H](CC(C)C)NC(=O)[C@@H](CCCNC(=N)N)NC(=O)[C@H](N)CCCNC(=N)N)C(=O)N[C@H](Cc1c[nH]c2ccccc12)C(=O)N[C@H](CCCNC(=N)N)C(=O)N[C@H](CCCNC(=N)N)C(=O)N[C@H](Cc1ccccc1)C(=O)N[C@H](CCCCN)C(=O)N[C@H](Cc1c[nH]c2ccccc12)C(=O)N[C@H](CC(C)C)C(=O)N[C@H](CCCNC(=N)N)C(=O)O [Chain204D] (H-[dR][dR][dL][dI][dW][dR][dR][dF][dK][dW][dL][dR]-OH)
- Minimum inhibitory concentration ([1]; Escherichia coli clinical strain 1): 8
- Minimum inhibitory concentration ([1]; Escherichia coli clinical strain 2): 1
- Minimum inhibitory concentration ([1]; Escherichia coli clinical strain 3): 1
- Minimum inhibitory concentration ([1]; Escherichia coli clinical strain 4): 1
- Minimum inhibitory concentration ([1]; Escherichia coli clinical strain 5): 1
- Minimum inhibitory concentration ([2]; Klebsiella pneumoniae clinical strain 1): 8
- Minimum inhibitory concentration ([2]; Klebsiella pneumoniae clinical strain 2): 4
- Minimum inhibitory concentration ([2]; Klebsiella pneumoniae clinical strain 3): 16
- Minimum inhibitory concentration ([2]; Klebsiella pneumoniae clinical strain 4): 4
- Minimum inhibitory concentration ([2]; Klebsiella pneumoniae clinical strain 5): 2
- Minimum inhibitory concentration ([3]; Pseudomonas aeruginosa clinical strain 1): 4
- Minimum inhibitory concentration ([3]; Pseudomonas aeruginosa clinical strain 2): 16
- Minimum inhibitory concentration ([3]; Pseudomonas aeruginosa clinical strain 3): 8
- Minimum inhibitory concentration ([3]; Pseudomonas aeruginosa clinical strain 4): 8
- Minimum inhibitory concentration ([3]; Pseudomonas aeruginosa clinical strain 5): 4
- Minimum inhibitory concentration ([4]; Serratia marcescens clinical strain 1): >128
- Minimum inhibitory concentration ([4]; Serratia marcescens clinical strain 2): >128
- Minimum inhibitory concentration ([4]; Serratia marcescens clinical strain 3): 128
- Minimum inhibitory concentration ([4]; Serratia marcescens clinical strain 4): >128
- Minimum inhibitory concentration ([4]; Serratia marcescens clinical strain 5): >128
- Minimum inhibitory concentration ([5]; Proteus mirabilis clinical strain 1): >128
- Minimum inhibitory concentration ([5]; Proteus mirabilis clinical strain 2): 32
- Minimum inhibitory concentration ([5]; Proteus mirabilis clinical strain 3): 64
- Minimum inhibitory concentration ([5]; Proteus mirabilis clinical strain 4): >128
- Minimum inhibitory concentration ([5]; Proteus mirabilis clinical strain 5): >128
- Minimum inhibitory concentration ([6]; Enterobacter cloacae clinical strain 1): 4
- Minimum inhibitory concentration ([6]; Enterobacter cloacae clinical strain 2): 8
- Minimum inhibitory concentration ([6]; Enterobacter cloacae clinical strain 3): 4
- Minimum inhibitory concentration ([6]; Enterobacter cloacae clinical strain 4): 8
- Minimum inhibitory concentration ([6]; Enterobacter cloacae clinical strain 5): 2
- Minimum inhibitory concentration ([7]; Staphylococcus aureus clinical strain 1): 1
- Minimum inhibitory concentration ([7]; Staphylococcus aureus clinical strain 2): 2
- Minimum inhibitory concentration ([7]; Staphylococcus aureus clinical strain 3): 2
- Minimum inhibitory concentration ([7]; Staphylococcus aureus clinical strain 4): 1
- Minimum inhibitory concentration ([7]; Staphylococcus aureus clinical strain 5): 1
- Minimum inhibitory concentration ([8]; Streptococcus pneumoniae clinical strain 1): 4
- Minimum inhibitory concentration ([8]; Streptococcus pneumoniae clinical strain 2): 4
- Minimum inhibitory concentration ([8]; Streptococcus pneumoniae clinical strain 3): 4
- Minimum inhibitory concentration ([8]; Streptococcus pneumoniae clinical strain 4): 4
- Minimum inhibitory concentration ([8]; Streptococcus pneumoniae clinical strain 5): 4
- Minimum inhibitory concentration ([9]; Acinetobacter baumannii clinical strain 1): 4
- Minimum inhibitory concentration ([9]; Acinetobacter baumannii clinical strain 2): 4
- Minimum inhibitory concentration ([9]; Acinetobacter baumannii clinical strain 3): 4
- Minimum inhibitory concentration ([9]; Acinetobacter baumannii clinical strain 4): 4
- Minimum inhibitory concentration ([9]; Acinetobacter baumannii clinical strain 5): 4
- Minimum inhibitory concentration ([10]; Candida albicans clinical yeast strain 1): 8
- Minimum inhibitory concentration ([10]; Candida albicans clinical yeast strain 2): 8
- Minimum inhibitory concentration ([10]; Candida albicans clinical yeast strain 3): 8
- Minimum inhibitory concentration ([10]; Candida albicans clinical yeast strain 4): 8
- Minimum inhibitory concentration ([10]; Candida albicans clinical yeast strain 5): 8
- Minimum inhibitory concentration ([11]; C. glabrata clinical yeast strain 1): 4
- Minimum inhibitory concentration ([11]; C. glabrata clinical yeast strain 2): 8
- Minimum inhibitory concentration ([11]; C. glabrata clinical yeast strain 3): 32
- Minimum inhibitory concentration ([11]; C. glabrata clinical yeast strain 4): 32
- Minimum inhibitory concentration ([12]; C. parapsilosis clinical yeast strain 1): 4
- Minimum inhibitory concentration ([12]; C. parapsilosis clinical yeast strain 2): 4
- Minimum inhibitory concentration ([12]; C. parapsilosis clinical yeast strain 3): 8
- Minimum inhibitory concentration ([12]; C. parapsilosis clinical yeast strain 4): 8
- Minimum inhibitory concentration [13]: 4

Source: patent US11096985B2, “Antimicrobial peptides, their variants and uses” (priority 2015, dated 2021)
